Laboratory results: article PMC7561186, “Rational design of balanced dual-targeting antibiotics with limited resistance” (PLoS Biology, 2020)
“And” between values parts separate entries of the source, which are not always exact repeats. Identical values can stand only once. Like-named read-outs stand apart in the source and are kept apart here.

What was measured:
human red blood cells = assay: Haemolysis analysis; conditions: for LDH activity: human red blood cells, 100 µg/mL; for hemolytic activity on human red blood cells: in words
Description: Next, 600 μl of this EDTA-treated blood was washed in TBS buffer (10 mM TRIS, 150 mM NaCl [pH 7.2]) and centrifuged at 1,500 g for 1 minute until the supernatant became colorless. The aliquot of the final pellet (200 μL) was diluted to 5 mL with TBS buffer. […] Next, 100 μL of red blood cell suspension was pipetted into sterile Eppendorf tubes together with 100 μL of 2-fold serial dilution of the compounds (final concentration ranged between 100 μg/mL–0.1 μg/mL in a final volume of 200 μL). The plate was incubated for one hour at 37 °C followed by centrifugation at 1,500 g for 1 minute to sediment all red blood cells. Next, all supernatants were subjected to LDH and Haemolysis-Icterus-Lipaemia (HIL) index determination on a Roche Modular P800 analyzer according to the manufacturer’s instructions. After completion of this step the rest of the supernatants were transferred to sterile 96-well plates for the measurement of their optical density at 560-nm wavelength (in a Multiskan FC microplate reader, Thermo Scientific). Melittin (Bachem) at a concentration of 50 μg/mL, and TBS and 10% DMSO/TBS were served as positive (100% hemolysis) and negative (no hemolysis) controls, respectively.

[1] = molecular target: T1, S. aureus topoisomerase IV (Staphylococcus aureus, UniProt P0C1S7); assay: S. aureus topoisomerase IV gel-based assay; assay type: biochemical; conditions: quadruplicates
T1 construct: purchased Inspiralis Ltd., Norwich, UK

in vitro = conditions: human
Description: Cytotoxicity of compounds on HepG2 and MCF-7 mammalian cell lines was determined by using a standard LDH assay. Briefly, HepG2 and MCF-7 cells were cultured in Eagle’s MEM medium (from Gibco) supplemented with 2 mM L-glutamine (Sigma), 100 U/mL penicillin (Sigma), and 100 μg/mL streptomycin (Sigma), and 10% FBS (Gibco) at 37 °C and under 5% CO2. Next, LDH assays were performed according to manufacturer instructions (Thermo Fisher Scientific, Massachusetts, USA). By using a CyQUANT LDH Cytotoxicity Assay Kit. Firstly, the cells were seeded in 96-well microtiter plates at 10^5 cells/mL (100 μL/well) and allowed to attach overnight. […] Lysis buffer (10 μL, Thermo Fisher Scientific) was then added to the maximal LDH activity control wells and incubated additional 45 minutes. The cell culture supernatant (50 μL) was then transferred to a new 96-well plate and mixed with 50 μL of the reaction mixture. After 30 minutes on room temperature, reactions were stopped with 50 μL of the Stop solution. Absorbance (490 nm and 680 nm) was measured with the automatic microplate reader Synergy 4 Hybrid Microplate Reader (BioTek, VT, USA). All experiments were performed in triplicates and repeated 3 times. Statistical significance (P < 0.05) was calculated with 2-tailed Welch’s t-test between treated groups and DMSO. The percentage of cytotoxicity was determined according to the following equation: %Cytotoxicity=(CompoundtreatedLDHactivity-SpontaneousLDHactivity/MaximumLDHactivity-SpontaneousLDHactivity)*100

CHO-K1 cells = assay type: cell-based, hamster; conditions: for % Micronucleated cells / Micronucleus Test Result: 4 hours, CHO-K1; for genetic toxicity: CHO-K1 micronucleus assay, in words
Description: Genetic toxicity analysis of compounds was performed in an in vitro micronucleus test, according to the protocol described in Diaz and colleagues (2007), at Eurofins Panlabs (St. Charles, MO, US). Micronucleated cells and micronuclei were enumerated by the use of high-content fluorescent cell imaging. The assay was performed on CHO-K1 cells. […] Experiments were performed in 2 biological replicates. All cell lines were tested as being negative for Mycoplasma contamination.

[2] = tested on: multidrug-resistant Staphylococcus, Enterococcus, and Streptococcus isolates; assay: MIC against multidrug-resistant gram-positive isolates (summary); assay type: cell-based; conditions: read-out: MIC values against all studied multidrug-resistant Staphylococcus, Enterococcus, and Streptococcus isolates
Description: (§1) MICs were determined using a standard serial broth microdilution technique according to the CLSI guidelines. Briefly, bacterial strains were inoculated onto MHBII agar plates and were grown overnight at 37 °C. Next, 3 individual colonies from each strain were inoculated into 1 mL MHBII medium and propagated at 37 °C, 250 rpm overnight. In the cases of Enterococcus and Streptococcus sp., cells were plated to BHI agar plates, and BHI broth was used to determine MICs. […] Following dilutions, each well was seeded with 5×10^4 bacterial cells. All measurements were performed in 3 parallel replicates and to avoid possible edge effects in microwell plates, side rows (A and H) were filled with sterile medium. Following inoculations, plates were covered with lids and wrapped in polyethylene plastic bags to minimize evaporation but allow for O2 transfer. Plates were incubated at 37 °C under continuous shaking at 150 rpm for 18 hours. After incubation, OD600 of each well was measured using a BioTek Synergy 2 microplate reader.

S. aureus = assay: pH-dependent MIC determination; assay type: cell-based; conditions: Staphylococcus aureus
Description: as §1

[3] = tested on: S. aureus USA300 (MRSA) BAA1556, S. aureus (VRSA) ECL2963646, S. aureus Mu50 (VISA) ATCC 700699; assay: S. aureus dermal infection model; assay type: in vivo, ICR mice; conditions: for Log CFU/Skin: 2% treatment, individual animals; for antibacterial activity after topical application: mouse skin infection, ointment twice daily, MRSA, VISA, VRSA, comparable to mupirocin, in words
Description: The testing strains, S. aureus USA300 (MRSA) BAA1556, S. aureus (VRSA) ECL2963646, and S. aureus Mu50 (VISA) ATCC 700699 were obtained from frozen stocks and thawed at room temperature. Next, an aliquot of 0.2 mL from each stock was transferred to 20 mL BHI broth and incubated at 37 °C with shaking (120 rpm) for 8 hours. Cells in 20 mL culture were pelleted by centrifugation, 3,500g for 15 minutes, and then resuspended in 10 mL cold PBS, then cells were diluted in PBS to obtain the inoculum sizes of 1×10^5 or 1× 10^6 CFU/mL, based on the testing strain’s virulence. In all cases, the actual colony counts were determined by plating dilutions in at least 3 replicates onto MHBII agar plates followed by 24 hours’ incubation and colony counting.
For dermal infections, groups of 5 female ICR mice weighing 24 ± 4 g, provided by BioLasco Taiwan (under a Charles River Laboratories Technology Licensee), were used. Animals were acclimated for 3 days prior to use and were confirmed to be in good health. Prior to infection, animals were anesthetized with etomidate-lipuro emulsion (20 mg /10 mL) at 20 mg/kg by IV injection, and then the fur on the back was removed by an electric shaver, and the epidermal layer was disrupted with an abrasive paper according to the protocol developed by Kugelberg and colleagues. Mice were inoculated topically on the wound area with testing strain suspension, 5 μL/mouse. The target inoculation densities were 1×10^5 or 1× 10^6 CFU/mL, based on the corresponding strain’s virulence. Following infection, animals were housed separately. […] Test articles were administered topically (20 μL/mouse) twice daily. One no-treatment group was euthanized at 1 hour after infection for initial bacterial counts, and the other treatment groups were dosed twice daily with the test compounds and sacrificed either at 25 hours or at 73 hours postinfection. Animals were euthanized with CO2 asphyxiation and the infected skin, a 2 cm^2 area, was excised. The skin samples of the wound infection (around 2 cm^2 areas) were then homogenized in 1 mL PBS (pH 7.4) with a polytron homogenizer. A 0.1 mL aliquot of each homogenate was used for serial 10-fold dilutions and plated onto MHBII agar plates for bacterial enumeration. Statistical significance (P <0.05) was assessed with 1-way ANOVA followed by Dunnett’s method. A significant (P <0.05) decrease in the bacterial counts of the treated animals compared with the vehicle control group was considered significant antimicrobial activity.

[4] = tested on: S. aureus ATCC 700699 (VISA); assay: microbe, parasite or virus in culture; assay type: cell-based; conditions: for MIC: Staphylococcus aureus, read-out: MIC in adapted strains; for increase in MIC in adapted strains compared with the wild-type strain: lineages adapted to the same compound, S. aureus VISA
Description: Adaptive laboratory evolution experiments followed an established protocol for automated laboratory evolution and aimed to maximize the drug-resistance increment during a fixed time period. […] Experiments were conducted in 96-well plates, in MHBII medium, by utilizing a checkerboard layout to minimize and monitor cross-contamination. These 96-well deep-well plates (0.5 mL, polypropylene, V-bottom) were covered with sandwich covers (Enzyscreen BV) to ensure an optimal oxygen exchange rate and limit evaporation and were shaken at 150 rpm, 37 °C. […] Following cell transfer, each culture was allowed to grow for 48 hours. At each transfer, cell growth was monitored by measuring the OD600 in a BioTek Synergy 2 plate reader. […] Accordingly, only 1 of the 4 populations was retained for each independently evolving strain. This protocol was designed to avoid population extinction and to ensure that populations with the highest level of resistance are propagated further during adaptive evolution. […] Adaptation of populations was terminated after 20 transfers, i.e., 40 days. Following adaptation, cells from each final population were spread onto MHBII agar plates, and individual colonies were isolated. Next, one colony from each adapted line were subjected to capillary sequencing of gyrB and parE to assess their genotype.

[5] = S. aureus ATCC 43300 (MRSA), pH 5.5
[6] = S. aureus ATCC 43300 (MRSA), pH 7.3
[7] = S. aureus ATCC 700699 (VISA), pH 5.5
[8] = S. aureus ATCC 700699 (VISA), pH 7.3
[9] = Staphylococcus aureus ECL 2963646 (VRSA)
[10] = Staphylococcus aureus Mu50 ATCC 700699 (VISA)
[11] = Staphylococcus aureus USA300 (MRSA)

T1 sequence (P0C1S7 whole entry): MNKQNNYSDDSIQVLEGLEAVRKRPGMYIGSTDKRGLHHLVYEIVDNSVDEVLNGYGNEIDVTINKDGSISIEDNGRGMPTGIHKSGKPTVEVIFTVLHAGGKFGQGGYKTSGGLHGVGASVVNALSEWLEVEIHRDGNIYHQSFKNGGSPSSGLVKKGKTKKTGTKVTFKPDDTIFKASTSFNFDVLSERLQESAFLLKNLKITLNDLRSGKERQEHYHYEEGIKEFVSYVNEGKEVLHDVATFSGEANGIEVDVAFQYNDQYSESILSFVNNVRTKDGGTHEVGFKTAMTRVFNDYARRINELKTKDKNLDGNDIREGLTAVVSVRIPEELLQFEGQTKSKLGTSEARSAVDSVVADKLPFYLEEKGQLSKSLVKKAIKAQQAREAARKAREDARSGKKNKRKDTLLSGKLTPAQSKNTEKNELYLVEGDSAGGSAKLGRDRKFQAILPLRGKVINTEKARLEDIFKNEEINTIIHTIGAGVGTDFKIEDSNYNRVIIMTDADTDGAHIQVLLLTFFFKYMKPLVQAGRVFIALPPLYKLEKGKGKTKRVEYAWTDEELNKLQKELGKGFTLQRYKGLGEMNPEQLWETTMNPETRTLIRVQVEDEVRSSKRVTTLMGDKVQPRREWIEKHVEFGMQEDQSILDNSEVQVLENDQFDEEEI
T1 sequence (P0C1U9 whole entry, further chain): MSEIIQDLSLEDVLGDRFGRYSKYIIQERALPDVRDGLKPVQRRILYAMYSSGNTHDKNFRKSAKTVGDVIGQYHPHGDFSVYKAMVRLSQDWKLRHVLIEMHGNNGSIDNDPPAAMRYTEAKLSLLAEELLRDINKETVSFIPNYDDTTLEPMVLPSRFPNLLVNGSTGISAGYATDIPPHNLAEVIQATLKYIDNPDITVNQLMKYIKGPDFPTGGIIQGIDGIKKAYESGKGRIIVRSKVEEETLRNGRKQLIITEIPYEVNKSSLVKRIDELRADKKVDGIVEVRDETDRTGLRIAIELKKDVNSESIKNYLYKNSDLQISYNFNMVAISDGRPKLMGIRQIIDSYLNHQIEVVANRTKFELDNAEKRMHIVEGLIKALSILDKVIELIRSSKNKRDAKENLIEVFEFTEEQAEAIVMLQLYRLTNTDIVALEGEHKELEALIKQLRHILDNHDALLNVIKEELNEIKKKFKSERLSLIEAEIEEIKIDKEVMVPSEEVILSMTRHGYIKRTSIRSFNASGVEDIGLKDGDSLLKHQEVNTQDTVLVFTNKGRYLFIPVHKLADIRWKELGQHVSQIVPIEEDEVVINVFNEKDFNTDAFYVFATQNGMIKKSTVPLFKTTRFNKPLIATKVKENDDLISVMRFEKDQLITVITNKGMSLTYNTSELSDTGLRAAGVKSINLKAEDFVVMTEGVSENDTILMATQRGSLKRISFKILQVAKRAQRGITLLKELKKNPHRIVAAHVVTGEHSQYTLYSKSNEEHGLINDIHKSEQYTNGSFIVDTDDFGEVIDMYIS

SMILES	LDH activity (human red blood cells) [Unit/mL]	hemolytic activity on human red blood cells (human red blood cells)	IC50 [1] [nM]	IC50 (in vitro) [nM]	% Micronucleated cells (CHO-K1 cells; 1.3 x 10^-4 M) [%]	Micronucleus Test Result (CHO-K1 cells; 1.3 x 10^-4 M)	% Micronucleated cells (CHO-K1 cells; 2.5 x 10^-4 M) [%]	Micronucleus Test Result (CHO-K1 cells; 2.5 x 10^-4 M)	% Micronucleated cells (CHO-K1 cells; 3.1 x 10^-5 M) [%]	Micronucleus Test Result (CHO-K1 cells; 3.1 x 10^-5 M)	% Micronucleated cells (CHO-K1 cells; 5.0 x 10^-4 M) [%]	Micronucleus Test Result (CHO-K1 cells; 5.0 x 10^-4 M)	% Micronucleated cells (CHO-K1 cells; 6.2 x 10^-5 M) [%]	Micronucleus Test Result (CHO-K1 cells; 6.2 x 10^-5 M)	genetic toxicity (CHO-K1 cells)	MIC [2] [µg/mL]	MIC (S. aureus; [5]) [µg/mL]	MIC (S. aureus; [6]) [µg/mL]	MIC (S. aureus; [7]) [µg/mL]	MIC (S. aureus; [8]) [µg/mL]	other results
Cc1[nH]c(C(=O)Nc2nc3c(OCc4ccccc4)cc(C(=O)O)cc3s2)c(Cl)c1Cl [ULD2]	10	no biocompatibility concerns	2 ± 0.3	> 100000	1.07	- (A negative test (-) result indicates P > 0.05 by t-test and percentage of micronucleated cells less than 2-fold higher than the background level)	1.36	- (A negative test (-) result indicates P > 0.05 by t-test and percentage of micronucleated cells less than 2-fold higher than the background level)	0.57	- (A negative test (-) result indicates P > 0.05 by t-test and percentage of micronucleated cells less than 2-fold higher than the background level)	0.78	- (A negative test (-) result indicates P > 0.05 by t-test and percentage of micronucleated cells less than 2-fold higher than the background level)	0.49	- (A negative test (-) result indicates P > 0.05 by t-test and percentage of micronucleated cells less than 2-fold higher than the background level)	No genetic toxicity	< 2	0.008	0.06	0.0005	0.02	Log CFU/Skin [3, 9]: 5.96 Log CFU/Skin and 5.93 Log CFU/Skin and 5.51 Log CFU/Skin and 5.91 Log CFU/Skin and 5.45 Log CFU/Skin; Log CFU/Skin [3, 10]: 4.76 Log CFU/Skin and 5.44 Log CFU/Skin and 5.93 Log CFU/Skin and 4.96 Log CFU/Skin and 5.73 Log CFU/Skin; Log CFU/Skin [3, 11]: 4.14 Log CFU/Skin and 4.81 Log CFU/Skin and 5.33 Log CFU/Skin and 6.64 Log CFU/Skin and 5.97 Log CFU/Skin; antibacterial activity after topical application [3]: potent antibacterial activity; MIC [4]: 0.5 µg/mL; increase in MIC in adapted strains compared with the wild-type strain [4]: 25 fold
Cc1[nH]c(C(=O)Nc2nc3ccc(C(=O)O)cc3s2)c(Cl)c1Cl [ULD1]	40	no biocompatibility concerns	9.3 ± 2.2	> 100000	0.32	- (A negative test (-) result indicates P > 0.05 by t-test and percentage of micronucleated cells less than 2-fold higher than the background level)	0.56	- (A negative test (-) result indicates P > 0.05 by t-test and percentage of micronucleated cells less than 2-fold higher than the background level)	0.47	- (A negative test (-) result indicates P > 0.05 by t-test and percentage of micronucleated cells less than 2-fold higher than the background level)	0.57	- (A negative test (-) result indicates P > 0.05 by t-test and percentage of micronucleated cells less than 2-fold higher than the background level)	0.36	- (A negative test (-) result indicates P > 0.05 by t-test and percentage of micronucleated cells less than 2-fold higher than the background level)	No genetic toxicity	< 2	0.004	0.1	0.00025	0.04	Log CFU/Skin [3, 9]: 5.77 Log CFU/Skin and 5.81 Log CFU/Skin and 5.92 Log CFU/Skin and 6.59 Log CFU/Skin and 5.61 Log CFU/Skin; Log CFU/Skin [3, 10]: 5 Log CFU/Skin and 5.57 Log CFU/Skin and 5.65 Log CFU/Skin and 4.91 Log CFU/Skin and 5.98 Log CFU/Skin; Log CFU/Skin [3, 11]: 4.61 Log CFU/Skin and 3.68 Log CFU/Skin and 4.97 Log CFU/Skin and 3.75 Log CFU/Skin and 4.86 Log CFU/Skin; antibacterial activity after topical application [3]: potent antibacterial activity; MIC [4]: 1 µg/mL; increase in MIC in adapted strains compared with the wild-type strain [4]: 25 fold
